From patent US10800791B2, “Triazole ACC inhibitors and uses thereof” (Gilead Apollo, LLC, priority 2015, dated 2020)
Converted amounts (≈) assume the structure as drawn. Read-outs that look alike come from different tables or passages of the source.

Key:
[1] = system: Collectotrichum graminicola (Cg); assay: Growth inhibition assay of fungal pathogens, Cg; format: cell-based; settings: 48 h
In short: (§1)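 Spores diluted in 17% V8 liquid media and incubated with compound at final 50, 10, 2 ppm or 2, 0.4, 0.08 ppm (2% DMSO). OD600 plus visual ratings at 24 and 48 hours, blank-subtracted; percent growth inhibition from 48 h readings relative to 2% DMSO control.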

Diplodia maydis (Dm) = assay: Growth inhibition assay of fungal pathogens, Dm; format: cell-based; settings: Stenocarpella maydis, 48 h
In short: as §1

C. parapsilosis = assay: Antifungal Activity Assay (broth microtiter MIC), C. parapsilosis; format: cell-based, Candida parapsilosis; settings: Lodderomyces parapsilosis, ATCC22019, 48 h
In short: (§2)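 Broth microdilution per CLSI M27-A3 in RPMI 1640+MOPS, inoculum 2.5×10^3 CFU/mL final from overnight Sabouraud dextrose agar cultures at 35° C. Compounds diluted from DMSO stock to 128 μg/mL in water. MIC read visually versus growth control at 48 h.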

[2] = system: Phytophthora capsici (Pc); assay: Growth inhibition assay of fungal pathogens, Pc; format: cell-based; settings: 48 h
In short: as §1

Septoria tritici (St) = assay: Growth inhibition assay of fungal pathogens, St; format: cell-based; settings: Zymoseptoria tritici, 48 h
In short: as §1

Rhizoctonia solani (Rs) = assay: Growth inhibition assay of fungal pathogens, Rs; format: cell-based; settings: 48 h
[3] = system: Fusarium moniliforme (Fm); assay: Growth inhibition assay of fungal pathogens, Fm; format: cell-based; settings: for IC90: Fusarium verticillioides, 48 h, read-out: Concentration at 90% Inhibition Fm
In short: as §1

human (hACC2) = human (hACC2) (Homo sapiens, UniProt O00763); assay: In vitro ACC inhibition assay (ADP-Glo), hACC2; format: biochemical; settings: 5 nM ACC2, 20 μM ATP, 20 μM acetyl-CoA
Protocol: The detailed procedure is as follows. […] 10 μL ADP glo reagent was added. […] 20 μL kinase detection reagent was added.

C. krusei = assay: Antifungal Activity Assay (broth microtiter MIC), C. krusei; format: cell-based, Candida krusei; settings: Pichia kudriavzevii, ATCC6258, 48 h
In short: as §2

[4] = system: Fusarium virguliforme (Fv); assay: Growth inhibition assay of fungal pathogens, Fv; format: cell-based; settings: 48 h
In short: as §1

C. albicans = assay: Antifungal Activity Assay (broth microtiter MIC), C. albicans; format: cell-based, Candida albicans; settings: Candida albicans, ATCC90028, 48 h
In short: as §2

[5] = Fusarium moniliforme, growth inhibition at 48 hours vs 2% DMSO control

human (hACC2), sequence (O00763 whole entry): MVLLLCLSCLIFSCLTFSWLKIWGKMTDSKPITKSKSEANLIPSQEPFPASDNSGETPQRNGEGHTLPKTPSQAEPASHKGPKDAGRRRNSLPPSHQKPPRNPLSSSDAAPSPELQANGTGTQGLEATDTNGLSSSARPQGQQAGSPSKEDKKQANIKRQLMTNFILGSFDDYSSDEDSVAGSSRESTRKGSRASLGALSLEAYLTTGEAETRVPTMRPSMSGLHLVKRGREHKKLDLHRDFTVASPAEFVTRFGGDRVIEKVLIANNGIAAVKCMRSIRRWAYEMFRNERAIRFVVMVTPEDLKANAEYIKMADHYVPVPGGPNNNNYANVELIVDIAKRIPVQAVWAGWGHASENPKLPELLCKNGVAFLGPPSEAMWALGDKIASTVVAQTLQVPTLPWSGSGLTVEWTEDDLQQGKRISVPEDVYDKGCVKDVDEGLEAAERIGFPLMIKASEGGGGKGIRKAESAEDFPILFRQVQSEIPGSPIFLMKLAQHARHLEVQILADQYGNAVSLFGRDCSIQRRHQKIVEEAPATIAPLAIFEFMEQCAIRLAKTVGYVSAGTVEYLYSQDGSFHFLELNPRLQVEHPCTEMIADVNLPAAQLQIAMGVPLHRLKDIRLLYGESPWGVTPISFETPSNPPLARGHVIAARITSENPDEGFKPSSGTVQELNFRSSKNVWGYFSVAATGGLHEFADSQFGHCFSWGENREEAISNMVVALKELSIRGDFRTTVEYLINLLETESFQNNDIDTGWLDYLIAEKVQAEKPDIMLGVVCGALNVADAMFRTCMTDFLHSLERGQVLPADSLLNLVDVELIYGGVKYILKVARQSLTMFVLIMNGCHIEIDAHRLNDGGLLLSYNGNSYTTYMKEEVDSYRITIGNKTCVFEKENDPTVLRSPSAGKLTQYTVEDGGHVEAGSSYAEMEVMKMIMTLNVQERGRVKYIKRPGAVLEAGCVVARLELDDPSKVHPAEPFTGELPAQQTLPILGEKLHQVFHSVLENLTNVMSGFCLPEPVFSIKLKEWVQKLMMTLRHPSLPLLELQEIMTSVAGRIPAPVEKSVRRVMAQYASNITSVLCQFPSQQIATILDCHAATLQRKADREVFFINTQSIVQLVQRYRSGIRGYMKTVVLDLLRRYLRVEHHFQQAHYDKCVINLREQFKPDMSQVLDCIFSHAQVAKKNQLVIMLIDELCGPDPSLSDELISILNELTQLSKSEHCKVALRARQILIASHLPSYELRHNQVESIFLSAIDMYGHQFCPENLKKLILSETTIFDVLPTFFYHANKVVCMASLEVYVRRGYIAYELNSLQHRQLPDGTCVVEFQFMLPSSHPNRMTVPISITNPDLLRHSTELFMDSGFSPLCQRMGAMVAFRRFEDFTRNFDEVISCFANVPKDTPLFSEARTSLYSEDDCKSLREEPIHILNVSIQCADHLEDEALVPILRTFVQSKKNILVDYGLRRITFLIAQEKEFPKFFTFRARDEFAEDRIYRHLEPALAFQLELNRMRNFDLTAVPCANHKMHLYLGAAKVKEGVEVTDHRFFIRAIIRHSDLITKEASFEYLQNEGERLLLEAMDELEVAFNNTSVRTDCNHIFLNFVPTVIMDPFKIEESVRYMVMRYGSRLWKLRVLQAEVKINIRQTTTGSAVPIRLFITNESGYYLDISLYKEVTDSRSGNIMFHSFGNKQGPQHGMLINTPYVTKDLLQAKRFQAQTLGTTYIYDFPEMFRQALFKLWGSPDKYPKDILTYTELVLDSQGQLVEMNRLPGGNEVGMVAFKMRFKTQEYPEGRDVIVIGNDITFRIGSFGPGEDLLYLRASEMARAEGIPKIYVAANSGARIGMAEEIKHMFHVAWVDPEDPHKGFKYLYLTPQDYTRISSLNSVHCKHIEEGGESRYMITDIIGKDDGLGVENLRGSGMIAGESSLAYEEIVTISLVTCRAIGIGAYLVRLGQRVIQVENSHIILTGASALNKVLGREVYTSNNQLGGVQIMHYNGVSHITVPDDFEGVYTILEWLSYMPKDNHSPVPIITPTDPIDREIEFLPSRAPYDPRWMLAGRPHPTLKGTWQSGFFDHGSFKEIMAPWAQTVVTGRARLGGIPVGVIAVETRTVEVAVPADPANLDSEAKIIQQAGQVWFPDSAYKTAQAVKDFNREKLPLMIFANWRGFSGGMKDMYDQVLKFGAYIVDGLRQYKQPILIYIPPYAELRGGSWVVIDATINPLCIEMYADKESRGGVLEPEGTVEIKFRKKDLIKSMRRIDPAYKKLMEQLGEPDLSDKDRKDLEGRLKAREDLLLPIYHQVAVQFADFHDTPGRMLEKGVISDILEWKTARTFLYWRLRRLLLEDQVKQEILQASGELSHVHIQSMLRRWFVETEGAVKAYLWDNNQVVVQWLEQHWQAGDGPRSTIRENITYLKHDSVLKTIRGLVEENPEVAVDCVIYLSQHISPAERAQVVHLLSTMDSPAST

Compound: COc1ccc(F)cc1[C@H](Cn1c(=O)n(C(C)(C)C(=O)N2CCCC2)c(=O)c2c(C)c(-n3nccn3)sc21)OC[C@H](C)O [Compound I-48, 1-((R)-2-(5-fluoro-2-methoxyphenyl)-2-((S)-2-hydroxy-propoxy)ethyl)-5-methyl-3-(2-methyl-1-oxo-1-(pyrrolidin-1-yl)propan-2-yl)-6-(2H-1,2,3-triazol-2-yl)thieno[2,3-d]pyrimidine-2,4(1H,3H)-dione]
- IC90 ([1]; Collectotrichum graminicola, growth inhibition at 48 hours vs 2% DMSO control, read-out: Concentration at 90% Inhibition Cg): 0.4 µg/mL (≈ 0.651 µM)
- IC90 ([1]; Collectotrichum graminicola, growth inhibition vs 2% DMSO control at 48 hours, read-out: Concentration at 90% Inhibition Cg): 0.4 µg/mL (≈ 0.651 µM)
- IC90 (Diplodia maydis (Dm); Diplodia maydis, growth inhibition at 48 hours vs 2% DMSO control, read-out: Concentration at 90% Inhibition Dm): 2 µg/mL (≈ 3.25 µM)
- IC90 (Diplodia maydis (Dm); Diplodia maydis, growth inhibition vs 2% DMSO control at 48 hours, read-out: Concentration at 90% Inhibition Dm): 2 µg/mL (≈ 3.25 µM)
- MIC (C. parapsilosis; Table 3a, ATCC 22019, 3 replicates, MIC recorded at 48 h, read-out: MIC, C. parapsilosis ATCC 22019): 2.1 to 4 µg/mL (≈ 3.42 to 6.51 µM)
- MIC (C. parapsilosis; Table 3b (additional results), ATCC 22019, 3 replicates, MIC recorded at 48 h, read-out: MIC, C. parapsilosis ATCC 22019): 1.01 to 2 µg/mL (≈ 1.64 to 3.25 µM)
- IC90 ([2]; growth inhibition at 48 hours vs 2% DMSO control, read-out: Concentration at 90% Inhibition Pc): > 50 µg/mL
- IC90 ([2]; growth inhibition vs 2% DMSO control at 48 hours, read-out: Concentration at 90% Inhibition Pc): > 50 µg/mL
- IC90 (Septoria tritici (St); Septoria tritici, growth inhibition at 48 hours vs 2% DMSO control, read-out: Concentration at 90% Inhibition St): > 50 µg/mL
- IC90 (Septoria tritici (St); Septoria tritici, growth inhibition vs 2% DMSO control at 48 hours, read-out: Concentration at 90% Inhibition St): > 50 µg/mL
- IC90 (Rhizoctonia solani (Rs); mycelial plugs, growth inhibition at 48 hours vs 2% DMSO control, read-out: Concentration at 90% Inhibition Rs): 2 µg/mL (≈ 3.25 µM)
- IC90 (Rhizoctonia solani (Rs); mycelial plugs, growth inhibition vs 2% DMSO control at 48 hours, read-out: Concentration at 90% Inhibition Rs): 10 µg/mL (≈ 16.3 µM)
- IC90 [3, 5]: 0.4 µg/mL (≈ 0.651 µM)
- IC90 ([3]; Fusarium moniliforme, growth inhibition vs 2% DMSO control at 48 hours): 0.4 µg/mL (≈ 0.651 µM)
- IC50 (human (hACC2); Table 2a): 5 to 10 nM
- IC50 (human (hACC2); Table 2b, additional results): 5 to 10 nM
- MIC (C. krusei; Table 3a, ATCC 6258, 3 replicates, MIC recorded at 48 h, read-out: MIC, C. krusei ATCC 6258): 1.1 to 2 µg/mL (≈ 1.79 to 3.25 µM)
- MIC (C. krusei; Table 3b (additional results), ATCC 6258, 3 replicates, MIC recorded at 48 h, read-out: MIC, C. krusei ATCC 6258): 2.01 to 4 µg/mL (≈ 3.27 to 6.51 µM)
- IC90 ([4]; growth inhibition at 48 hours vs 2% DMSO control, read-out: Concentration at 90% Inhibition Fv): 0.4 µg/mL (≈ 0.651 µM)
- IC90 ([4]; growth inhibition vs 2% DMSO control at 48 hours, read-out: Concentration at 90% Inhibition Fv): 0.4 µg/mL (≈ 0.651 µM)
- MIC (C. albicans; Table 3a, ATCC 90028, 3 replicates, MIC recorded at 48 h, read-out: MIC, C. albicans ATCC 90028): 1.1 to 2 µg/mL (≈ 1.79 to 3.25 µM)
- MIC (C. albicans; Table 3b (additional results), ATCC 90028, 3 replicates, MIC recorded at 48 h, read-out: MIC, C. albicans ATCC 90028): 0.25 to 1 µg/mL (≈ 0.407 to 1.63 µM)

Compound: COc1ccc(F)cc1[C@H](Cn1c(=O)n(C(C)(C)C(=O)N(C)C)c(=O)c2c(C)c(-n3nccn3)sc21)OC(C)C [Compound I-49, (R)-2-(1-(2-(5-fluoro-2-methoxyphenyl)-2-isopropoxy-ethyl)-5-methyl-2,4-dioxo-6-(2H-1,2,3-triazol-2-yl)-1,4-dihydrothieno[2,3-d]pyrimi-din-3(2H)-yl)-N,N,2-trimethylpropanamide]
- IC90 ([1]; read-out: Concentration at 90% Inhibition Cg, Collectotrichum graminicola, growth inhibition at 48 hours vs 2% DMSO control): 10 µg/mL (≈ 17.5 µM)
- IC90 ([1]; read-out: Concentration at 90% Inhibition Cg, Collectotrichum graminicola, growth inhibition vs 2% DMSO control at 48 hours): > 50 µg/mL
- IC90 (Diplodia maydis (Dm); read-out: Concentration at 90% Inhibition Dm, Diplodia maydis, growth inhibition at 48 hours vs 2% DMSO control): 2 µg/mL (≈ 3.49 µM)
- IC90 (Diplodia maydis (Dm); read-out: Concentration at 90% Inhibition Dm, Diplodia maydis, growth inhibition vs 2% DMSO control at 48 hours): 2 µg/mL (≈ 3.49 µM)
- MIC (C. parapsilosis; read-out: MIC, C. parapsilosis ATCC 22019, Table 3a, 3 replicates, MIC recorded at 48 h): 2.1 to 4 µg/mL (≈ 3.67 to 6.98 µM)
- MIC (C. parapsilosis; read-out: MIC, C. parapsilosis ATCC 22019, Table 3b (additional results), 3 replicates, MIC recorded at 48 h): > 4.01 µg/mL
- IC90 ([2]; read-out: Concentration at 90% Inhibition Pc, Phytophthora capsici, growth inhibition at 48 hours vs 2% DMSO control): > 50 µg/mL
- IC90 ([2]; read-out: Concentration at 90% Inhibition Pc, Phytophthora capsici, growth inhibition vs 2% DMSO control at 48 hours): > 50 µg/mL
- IC90 (Septoria tritici (St); read-out: Concentration at 90% Inhibition St, Septoria tritici, growth inhibition at 48 hours vs 2% DMSO control): > 50 µg/mL
- IC90 (Septoria tritici (St); read-out: Concentration at 90% Inhibition St, Septoria tritici, growth inhibition vs 2% DMSO control at 48 hours): > 50 µg/mL
- IC90 (Rhizoctonia solani (Rs); read-out: Concentration at 90% Inhibition Rs, Rhizoctonia solani, mycelial plugs, growth inhibition at 48 hours vs 2% DMSO control): 0.4 µg/mL (≈ 0.698 µM)
- IC90 (Rhizoctonia solani (Rs); read-out: Concentration at 90% Inhibition Rs, Rhizoctonia solani, mycelial plugs, growth inhibition vs 2% DMSO control at 48 hours): 0.4 µg/mL (≈ 0.698 µM)
- Concentration at 90% Inhibition Fm [3, 5]: A (compound concentration of 0.4 ppm at 90% inhibition of fungal pathogens)
- IC90 [3]: 0.4 µg/mL (≈ 0.698 µM)
- IC50 (human (hACC2); Table 2a): 10 to 40 nM
- IC50 (human (hACC2); Table 2b, additional results): 10 to 40 nM
- MIC (C. krusei; read-out: MIC, C. krusei ATCC 6258, Table 3a, 3 replicates, MIC recorded at 48 h): 2.1 to 4 µg/mL (≈ 3.67 to 6.98 µM)
- MIC (C. krusei; read-out: MIC, C. krusei ATCC 6258, Table 3b (additional results), 3 replicates, MIC recorded at 48 h): 1.01 to 2 µg/mL (≈ 1.76 to 3.49 µM)
- IC90 ([4]; read-out: Concentration at 90% Inhibition Fv, Fusarium virguliforme, growth inhibition at 48 hours vs 2% DMSO control): 0.4 µg/mL (≈ 0.698 µM)
- IC90 ([4]; read-out: Concentration at 90% Inhibition Fv, Fusarium virguliforme, growth inhibition vs 2% DMSO control at 48 hours): 0.4 µg/mL (≈ 0.698 µM)
- MIC (C. albicans; read-out: MIC, C. albicans ATCC 90028, Table 3a, 3 replicates, MIC recorded at 48 h): 2.1 to 4 µg/mL (≈ 3.67 to 6.98 µM)
- MIC (C. albicans; read-out: MIC, C. albicans ATCC 90028, Table 3b (additional results), 3 replicates, MIC recorded at 48 h): 1.01 to 2 µg/mL (≈ 1.76 to 3.49 µM)
